From US9376420B2 (YUHAN CORPORATION, priority 2012, dated 2016)

Molecular target: T1, human LXRβ (Homo sapiens, UniProt P55055)
T1 construct: expressed in transfected cells; host or cells: HEK293 cells (ATCC CRL-1573), transient transfection with pFA-hLXRβ/GAL4 and pUAS
T1 sequence (P55055 222-460 limits assumed): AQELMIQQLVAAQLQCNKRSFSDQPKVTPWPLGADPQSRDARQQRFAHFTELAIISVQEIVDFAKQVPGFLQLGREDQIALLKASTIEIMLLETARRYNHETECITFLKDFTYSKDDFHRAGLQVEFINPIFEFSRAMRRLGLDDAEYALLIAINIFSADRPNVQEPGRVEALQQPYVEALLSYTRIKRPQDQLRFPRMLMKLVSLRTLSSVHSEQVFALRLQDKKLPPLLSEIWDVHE
Test: Assay for Transcriptional Activity of LXRβ (GAL4-hLXRβ LBD luciferase reporter, transient transfection)
Format: cell-based
Settings: HEK293 cells transfected with pFA-hLXRβ/GAL4 and pUAS, 24 hours; for Emax: fold value in comparison with the control (DMSO-treated group); for EC50: increase of transcriptional activity of LXRβ, average of three independent tests
Method in brief: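 HEK293 cells transiently co-transfected with GAL4-hLXRβ LBD and 5×GAL4-UAS luciferase reporter, treated 24 h at 37 °C with compounds over 9 points (0.01–50 μM, half-log). Luminescence read after lysis; EC50 from four-parameter fit, mean of three independent tests, with a known LXR agonist as positive control.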

Row | SMILES | Emax [fold] | EC50 [nM]
1 | OC(C1=NN(c2ccccc2Cl)C(c2ccc(-c3cccnc3F)cc2)C1)(C(F)(F)F)C(F)(F)F (stereo not shown) [Example 261, 1-(2-chloro-phenyl)-5-[4-(2-fluoro-pyridin-3-yl)-phenyl]-3-[di-(trifluoromethyl)-hydroxy-methyl]-4,5-dihydro-1H-pyrazole] | 54 | 699
2 | OC(C1=NN(c2ccccc2Cl)C(c2ccc(-c3cc4ccccc4o3)cc2)C1)(C(F)(F)F)C(F)(F)F (stereo not shown) [Example 262, 5-(4-benzofuran-2-yl-phenyl)-1-(2-chloro-phenyl)-3-[di-(trifluoromethyl)-hydroxy-methyl]-4,5-dihydro-1H-pyrazole] | 92 | 6860
3 | OC(C1=NN(c2ccccc2Cl)C(c2ccc(-c3cc4ccccc4s3)cc2)C1)(C(F)(F)F)C(F)(F)F (stereo not shown) [Example 263, 5-(4-benzo[b]thiophen-2-yl-phenyl)-1-(2-chloro-phenyl)-3-[di-(trifluoromethyl)-hydroxy-methyl]-4,5-dihydro-1H-pyrazole] | 72 | 1270
4 | Cc1ccc(-c2ccc(C3CC(C(O)(C(F)(F)F)C(F)(F)F)=NN3c3ccccc3Cl)cc2)c(F)c1 (stereo not shown) [Example 265, 1-(2-chloro-phenyl)-5-(2′-fluoro-4′-methyl-biphenyl-4-yl)-3-[di-(trifluoromethyl)-hydroxy-methyl]-4,5-dihydro-1H-pyrazole] | 97 | 239
5 | CSc1ccc(-c2ccc(C3CC(C(O)(C(F)(F)F)C(F)(F)F)=NN3c3ccccc3Cl)cc2)cn1 (stereo not shown) [Example 266, 1-(2-chloro-phenyl)-5-[4-(6-methylsulfanyl-pyridin-3-yl)-phenyl]-3-[di-(trifluoromethyl)-hydroxy-methyl]-4,5-dihydro-1H-pyrazole] | 80 | 1390
6 | N#Cc1ccc(-c2ccc(C3CC(C(O)(C(F)(F)F)C(F)(F)F)=NN3c3ccccc3Cl)cc2)cn1 (stereo not shown) [Example 267, 1-(2-chloro-phenyl)-5-[4-(6-cyano-pyridin-3-yl)-phenyl]-3-[di-(trifluoromethyl)-hydroxy-methyl]-4,5-dihydro-1H-pyrazole] | 59 | 442
7 | OC(C1=NN(c2ccccc2Cl)C(c2ccc(-c3ccc(F)nc3)cc2)C1)(C(F)(F)F)C(F)(F)F (stereo not shown) [Example 268, 1-(2-chloro-phenyl)-5-[4-(6-fluoro-pyridin-3-yl)-phenyl]-3-[di-(trifluoromethyl)-hydroxy-methyl]-4,5-dihydro-1H-pyrazole] | 88 | 452
8 | CCOc1ccc(-c2ccc(C3CC(C(O)(C(F)(F)F)C(F)(F)F)=NN3c3ccccc3Cl)cc2)cn1 (stereo not shown) [Example 269, 1-(2-chloro-phenyl)-5-[4-(6-ethoxy-pyridin-3-yl)-phenyl]-3-[di-(trifluoromethyl)-hydroxy-methyl]-4,5-dihydro-1H-pyrazole] | 44 | 7930
9 | COc1cc(C)c(-c2ccc(C3CC(C(O)(C(F)(F)F)C(F)(F)F)=NN3c3ccccc3Cl)cc2)cn1 (stereo not shown) [Example 270, 1-(2-chloro-phenyl)-5-[4-(6-methoxy-4-methyl-pyridin-3-yl)-phenyl]-3-[di-(trifluoromethyl)-hydroxy-methyl]-4,5-dihydro-1H-pyrazole] | 48 | 437
10 | Cc1ccncc1-c1ccc(C2CC(C(O)(C(F)(F)F)C(F)(F)F)=NN2c2ccccc2Cl)cc1 (stereo not shown) [Example 271, 1-(2-chloro-phenyl)-5-[4-(4-methyl-pyridin-3-yl)-phenyl]-3-[di-(trifluoromethyl)-hydroxy-methyl]-4,5-dihydro-1H-pyrazole] | 45 | 547
11 | OC(C1=NN(c2ccccc2Cl)C(c2ccc(-c3ccc(C(F)(F)F)nc3)cc2)C1)(C(F)(F)F)C(F)(F)F (stereo not shown) [Example 272, 1-(2-chloro-phenyl)-5-[4-(6-trifluoromethyl-pyridin-3-yl)-phenyl]-3-[di-(trifluoromethyl)-hydroxy-methyl]-4,5-dihydro-1H-pyrazole] | 24 | 2250
